In paper PMC8372460 (European Journal of Medicinal Chemistry, 2021):
Read-outs that look alike come from different tables or passages of the source.

What was measured:
SARS-CoV-2 M^pro = SARS-CoV-2 M^pro (Severe acute respiratory syndrome coronavirus 2, UniProt P0DTD1); assay type: biochemical
[1] = patients with hypoprothrombinemia, doses from 1 to 200 mg; cited from earlier work
[2] = concentrations ranging from 100 μg/mL to 10 ng/mL; cited from earlier work
[3] = Balb/C mice, 100 mg/kg, p.o., 10 times in 20 days
Vero E6 cells = conditions: under tested concentrations
[4] = system: normal peripheral blood mononuclear cells; conditions: cited from earlier work
latent HIV-1 = conditions: bcl-2-transduced primary CD4+ T cell model; cited from earlier work
[5] = system: human normal fibroblast HFF-1 cells; assay: In vitro cytotoxicity evaluation, MTT assay; assay type: cell-based; conditions: read-out: IC50 values towards HFF-1 cells, 48 h
[6] = system: Vesicular Stomatitis Virus; conditions: cited from earlier work

O=C1C=C(O)C(=O)c2ccccc21 [Compound 7, 2-hydroxy-1,4-naphthoquione]
inhibitory effect towards M^pro (in words) (SARS-CoV-2 M^pro; 10 μM): did not exhibit any detectable inhibition

CC1=CC(=O)c2ccccc2C1=O [Compound 3, 2-Methyl-1,4-naphthoquinone, reference compound]
inhibitory effect towards M^pro (in words) (SARS-CoV-2 M^pro; 10 μM): inactive | toxic effects in patients [1]: no toxic effects were observed

CC(C)=CC[C@@H](O)C1=CC(=O)c2c(O)ccc(O)c2C1=O [Compound 1, shikonin, reference compound]
cytotoxic effects in vitro [2]: significant cytotoxic effects | inhibitory effect towards M^pro (in words) (SARS-CoV-2 M^pro; 10 μM): moderate inhibitory effects

COc1cccc2c1C(=O)C(C(C)=O)=CC2=O [Compound 15, 2-acetyl-8-methoxy-1,4-naphthoquinone]
animal deaths [3]: no animal deaths | body weight change compared with control animals [3]: minor body weight loss | toxicity symptoms (reduced activity, hypothermia, body shivering) ([3]; every other day): did not show any obvious toxicity symptoms | toxicity towards host Vero E6 cells (in words) (Vero E6 cells): non-toxic

COc1cc(C)cc2c1C(=O)C=CC2=O [Compound 22, 7-methyl juglone methyl ether]
inhibitory effect towards M^pro (in words) (SARS-CoV-2 M^pro): did not show any inhibitory effects

CC1=CC(=O)c2c(O)cccc2C1=O [Compound 17, Plumbagin]
inhibitory effect towards M^pro (in words) (SARS-CoV-2 M^pro; 10 μM): inactive

O=C1C=CC(=O)c2c(O)cccc21 [Compound 2, juglone]
IC50, cytotoxicity against normal peripheral blood mononuclear cells [4]: more than 5 μg/mL | reactivation of latent HIV-1 (latent HIV-1): potently reactivate latent HIV-1 | inhibitory effect towards M^pro (in words) (SARS-CoV-2 M^pro; 1 μM): completely inactivated the main protease | inhibitory effect towards M^pro (in words) (SARS-CoV-2 M^pro; 10 μM): completely loss of the hydrolytic efficacy | IC50 [5]: < 5 µM | activity against Vesicular Stomatitis Virus [6]: active

Cc1cc(O)c2c(c1)C(=O)C=CC2=O [Compound 16, 7-Methyl juglone]
Mpro inhibition rate at different conc. (%) 0.1 μM (SARS-CoV-2 M^pro): 21.7% | Mpro inhibition rate at different conc. (%) 1 μM (SARS-CoV-2 M^pro): 99.6% | inhibitory effect towards M^pro (in words) (SARS-CoV-2 M^pro): completely loss of the hydrolytic efficacy | IC50 [5]: < 5 µM
